Holding throughout (type): in vivo
In assay [1] the test system is rice sheath blight strains. Briefly: Bactericidal activity test: resistance to rice sheath blight (live pot test). The conditions noted are these: for pest or weed control at 400 µg/mL: Oryza sativa, 144 h. The method, then:
Bactericidal activity test, the determination procedure is as follows: Test of resistance to rice sheath blight: Select uniformly growing rice seedlings and spray them on the leaves at the set concentration, set a water sprayring group as blank control, every treatment was repeated twice. After 24h, the rice seedlings were inoculated with rice sheath blight strains and placed at room temperature (25±4°C) for normal management after inoculation. The prevention and control effect was investigated by visual inspection 6 days after inoculation.

For assay [2], the system named is tobacco Mosaic virus (TMV). The experiment in a line: Anti-TMV activity: live protection function. The following applies: for inhibition at 500 µg/mL: Tobacco mosaic virus, read-out: Relative inhibition rate (%) Live protection function; for antiTMV activity / TMV activity: 500µg/mL, Table 4 (all three modes); for antiTMV activity: compared with commercial Ningnanmycin; for TMV activity: compared with ribavirin. The protocol:
(§1) Determination of anti-tobacco Mosaic virus (TMV) activity by the following procedure:
(§2) The virus crude extract was centrifuged with polyethylene glycol at twice and refrigerated at 4°C for use. The absorbance of 260nm wavelength was determined by ultraviolet spectrophotometer, and the virus concentration was calculated according to the formula. Virus concentration(mg/ml) = (A260 × dilution ratio)(/E)^0.10 1cm^260nm . [formula]
(§3) After weighing, cryptolepine salt derivative, ningnanmycin and the original drug of ribavirin were dissolved in DMF to obtain 1×10^5µg/mL mother solution, and then diluted to the required concentration with 1‰ Tween 80 aqueous solution.
Select the 3-5 leaf stage of tobacco Xanthi nc with uniform growth, spray the whole plant, repeat each treatment 3 times, and set 1‰ Tween80 aqueous solution as control. 24h later, the leaf surface was coated with emery (500 mesh), the disease venom was dipped with a brush, and the whole leaf surface was gently rubbed twice along the direction of the branch pulse by using the brush, the leaf was supported by palm of hand, the virus concentration was 10µg/mL, and the leaf was washed by water after inoculation. After 3 days, the number of disease spots was recorded and the prevnetion and control effect was calculated.

Assay [3] concerns tobacco Mosaic virus (TMV). The experiment in a line: Anti-TMV activity: live treatment effect. The conditions noted are these: for inhibition at 500 µg/mL: Tobacco mosaic virus, 72 h, read-out: Relative inhibition rate (%) Live treatment effect. The method, then: as §1, §2, §3
Select the 3-5 leaf stage of tobacco Xanthi nc with uniform growth, use a brush to vaccinate the virus in the whole leaf, the virus concentration is 10µg/mL, and the leaf was washed with running water after inoculation. After the leaves were dried, the whole plant was sprayed with test sample, repeated 3 times every treatment, and 1‰ Tween 80 aqueous solution was set as control. After 3 days, the number of disease spots was recorded and the prevnetion and control effect was calculated.

In assay [4] the test system is tobacco Mosaic virus (TMV). The experiment in a line: Anti-TMV activity: living passivation activity test. The following applies: for inhibition at 500 µg/mL: Tobacco mosaic virus, read-out: Relative inhibition rate (%) Living passivation activity test. The protocol:
as §1, §2, §3
Select the 3-5 leaf stage of tobacco Xanthi nc with uniform growth, mix the test sample agent with the same volume of virus juice to passivate for 30min, friction inoculation, virus concentration 20µg/mL, the leaf was washed with running water after inoculation, repeat 3 times, set 1‰ Tween 80 aqueous solution as control. 3 days later, the number of disease spots was calculated. [formula]
Anti-tobacco Mosaic virus passivation activity test of all compounds was at a treatment dose of 500µg/mL. The positive control was the commercial anti-plant virus agent viriazole.

Where [5] appears, read: read-out: Resistance to rice sheath blight (%)/400mg/L.
[6] abbreviates: read-out: bactericidal activity against rice sheath blight.
Where [7] appears, read: Treatment dose 500 mg/L, tobacco Xanthi nc sprayed 24h before inoculation, virus 10µg/mL, disease spots counted after 3 days.
The mark [8] stands for this setting: Treatment dose 500 mg/L, tobacco Xanthi nc inoculated (virus 10µg/mL), then sprayed, disease spots counted after 3 days.
Setting [9] is: Treatment dose 500 mg/L, sample mixed with virus juice for 30min, then inoculated on tobacco Xanthi nc, virus 20µg/mL, 3 days.

Read-outs that look alike come from different tables or passages of the source.

Broadly, the inhibition is the change of the read-out against control, counted positive when it falls.

`Cc1ccc(S(=O)(=O)n2c3ccccc3c3c2cc2ccccc2[n+]3C)cc1` [Example 1]: the pest or weed control at 400 µg/mL in assay [1] (setting [5]) was 95 ± 5%; in assay [1] (setting [6]), > 95%. For the same compound, the values for the inhibition at 500 µg/mL in assay [2], in assay [3] and in assay [4] were 18.9 ± 2.6%, 20.3 ± 1.1% and 18.5 ± 0.6%, respectively.

As for `Cc1ccc(S(=O)(=O)n2c3ccc(C)cc3c3c2cc2ccccc2[n+]3C)cc1` [Example 2], the pest or weed control at 400 µg/mL in assay [1] (setting [5]) came out at 40%. Moreover, the inhibition at 500 µg/mL in assay [2] turned out to be 26.5 ± 3%; in assay [3], 20.5 ± 0.9%; in assay [4], 25.3 ± 2.3%.

As to `COc1ccc2c(c1)c1c(cc3ccccc3[n+]1C)n2S(=O)(=O)c1ccc(C)cc1` [Example 3], in assay [1] (setting [5]), the pest or weed control at 400 µg/mL came out at 35 ± 5%. Moreover, the inhibition at 500 µg/mL is 18.1 ± 3.1% in assay [2], 19.1 ± 0.1% in assay [3] and 20.3 ± 0.2% in assay [4].

Turning to `Cc1ccc(S(=O)(=O)n2c3ccc(F)cc3c3c2cc2ccccc2[n+]3C)cc1` [Example 4], the pest or weed control at 400 µg/mL in assay [1] (setting [5]) was 60%; in assay [1] (setting [6]), > 50%. Also, the inhibition at 500 µg/mL amounted to 21.6 ± 3.4% in assay [2], 18.6 ± 1.2% in assay [3] and 14.1 ± 1.3% in assay [4].

Regarding `Cc1ccc(S(=O)(=O)n2c3ccc(Cl)cc3c3c2cc2ccccc2[n+]3C)cc1` [Example 5], the pest or weed control at 400 µg/mL in assay [1] (setting [5]) was 55 ± 5%; in assay [1] (setting [6]), > 50%. For the same compound, the antiTMV activity result in assay [2] was “comparable to that of commercial Ningnanmycin”. In assay [2], the TMV activity result is given as “better TMV activity than the ribavirin”. The figures for the inhibition at 500 µg/mL in assay [2], in assay [3] and in assay [4] were 46.7 ± 4.1%, 35.8 ± 4.8% and 39.3 ± 2.5%, respectively.

Regarding `Cc1ccc(S(=O)(=O)n2c3ccc(Br)cc3c3c2cc2ccccc2[n+]3C)cc1` [Example 6], the pest or weed control at 400 µg/mL in assay [1] (setting [5]) was 40%. In assay [2], the antiTMV activity entry is “comparable to that of commercial Ningnanmycin”, the TMV activity entry is given as “better TMV activity than the ribavirin” and the inhibition at 500 µg/mL came out at 48.4 ± 4.7%. The inhibition at 500 µg/mL in assay [3] stood at 45.2 ± 3.6%. The inhibition at 500 µg/mL in assay [4] was 41 ± 2.2%.

With `Cc1ccc(S(=O)(=O)n2c3ccc(I)cc3c3c2cc2ccccc2[n+]3C)cc1.[Cl-]` [Example 7], in assay [1] (400mg/L leaf spray on rice seedlings, inoculated after 24h, visual inspection 6 days after inoculation), the “Resistance to rice sheath blight (%)/400mg/L” value worked out at 40±0%. Besides, the TMV activity result in assay [2] is “better TMV activity than the ribavirin”. Also, the “Relative inhibition rate (%) Live protection function” value in assay [2] (setting [7]) is listed as 44.5±0.4%. The “Relative inhibition rate (%) Live treatment effect” value in assay [3] (setting [8]) worked out at 43.0±3.5%. In assay [4] (setting [9]), the “Relative inhibition rate (%) Living passivation activity test” value stood at 47.7±3.1%.

For the compound `Cc1ccc(S(=O)(=O)n2c3ccc(C#N)cc3c3c2cc2ccccc2[n+]3C)cc1` [Example 8], the pest or weed control at 400 µg/mL in assay [1] (setting [5]) stood at 30%. For the same compound, the values for the inhibition at 500 µg/mL in assay [2], in assay [3] and in assay [4] were 18.8 ± 4.2%, 23.1 ± 0.5% and 18.6 ± 1.2%, respectively.

As for `Cc1ccc(S(=O)(=O)n2c3ccccc3c3c2cc2cc(C)ccc2[n+]3C)cc1` [Example 9], the pest or weed control at 400 µg/mL in assay [1] (setting [5]) was 70%; in assay [1] (setting [6]), > 50%. Also, the inhibition at 500 µg/mL in assay [2] was 23.8 ± 3.5%; in assay [3] it was 19.1 ± 0.1%; in assay [4], 23.1 ± 0.9%.

For `CNCC(=O)N[C@@H](CO)C(=O)N[C@H]1[C@H](O)[C@@H](O)[C@H](n2ccc(N)nc2=O)O[C@@H]1C(N)=O` [Ningnanmycin, reference compound], the inhibition at 500 µg/mL in assay [2] came to 58.3 ± 4.1%; in assay [3], 56.9 ± 2.8%; in assay [4] it was 59 ± 2.2%.

`Cc1nc(C(F)(F)F)c(C(=O)Nc2c(Br)cc(OC(F)(F)F)cc2Br)s1` [Thifluzamide, reference compound]: in assay [1] (400mg/L leaf spray on rice seedlings, inoculated after 24h, visual inspection 6 days after inoculation, read-out: Resistance to rice sheath blight (%)/400mg/L), the pest or weed control at 400 µg/mL stood at 100%.

Take `NC(=O)c1ncn([C@@H]2O[C@H](CO)[C@@H](O)[C@H]2O)n1` [ribavirin, reference compound]: the inhibition at 500 µg/mL turned out to be 39.5 ± 2% in assay [2] (setting [7]), 36.1 ± 3.7% in assay [3] (setting [8]) and 38 ± 1.3% in assay [4] (setting [9]).

For the origin of these results see EP4578857A1, “CRYPTOLEPINE SALT DERIVATIVE, AND PREPARATION METHOD THEREFOR AND USE THEREOF” (Nankai University, priority 2023, dated 2025).
